How the values were obtained:
[1] = target: T1, Carnitine O-palmitoyltransferase 1, liver isoform (Rattus norvegicus, UniProt P32198); experiment: (§1) Compound was evaluated for its ability to inhibit carnitine palmitoyltransferase I activity in intact mitochondria from rat liver
T1 sequence (P32198 whole entry): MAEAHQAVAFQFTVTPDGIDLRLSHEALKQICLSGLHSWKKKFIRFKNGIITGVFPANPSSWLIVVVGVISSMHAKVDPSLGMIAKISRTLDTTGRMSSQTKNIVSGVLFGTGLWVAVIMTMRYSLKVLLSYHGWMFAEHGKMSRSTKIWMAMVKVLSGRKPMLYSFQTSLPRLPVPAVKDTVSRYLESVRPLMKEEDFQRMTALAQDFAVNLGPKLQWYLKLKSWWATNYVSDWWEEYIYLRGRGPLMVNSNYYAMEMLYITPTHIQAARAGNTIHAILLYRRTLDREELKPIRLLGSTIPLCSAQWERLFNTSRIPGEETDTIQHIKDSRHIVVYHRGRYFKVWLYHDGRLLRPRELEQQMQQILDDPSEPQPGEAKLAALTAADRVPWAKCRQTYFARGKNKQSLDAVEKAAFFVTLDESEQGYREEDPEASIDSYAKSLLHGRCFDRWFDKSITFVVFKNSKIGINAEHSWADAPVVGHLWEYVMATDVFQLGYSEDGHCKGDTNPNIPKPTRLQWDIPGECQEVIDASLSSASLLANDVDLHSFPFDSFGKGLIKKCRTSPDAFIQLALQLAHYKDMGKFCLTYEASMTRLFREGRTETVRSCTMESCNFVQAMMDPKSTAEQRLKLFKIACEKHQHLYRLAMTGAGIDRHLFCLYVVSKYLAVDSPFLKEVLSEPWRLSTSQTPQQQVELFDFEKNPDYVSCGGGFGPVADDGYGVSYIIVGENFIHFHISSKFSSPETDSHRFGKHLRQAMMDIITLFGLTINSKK

[2] = target: T2, Carnitine O-palmitoyltransferase 1, muscle isoform (Rattus norvegicus, UniProt Q63704); experiment: (§2) Compound was evaluated for its ability to inhibit carnitine palmitoyltransferase I activity in intact mitochondria from rat heart
T2 sequence (Q63704 whole entry): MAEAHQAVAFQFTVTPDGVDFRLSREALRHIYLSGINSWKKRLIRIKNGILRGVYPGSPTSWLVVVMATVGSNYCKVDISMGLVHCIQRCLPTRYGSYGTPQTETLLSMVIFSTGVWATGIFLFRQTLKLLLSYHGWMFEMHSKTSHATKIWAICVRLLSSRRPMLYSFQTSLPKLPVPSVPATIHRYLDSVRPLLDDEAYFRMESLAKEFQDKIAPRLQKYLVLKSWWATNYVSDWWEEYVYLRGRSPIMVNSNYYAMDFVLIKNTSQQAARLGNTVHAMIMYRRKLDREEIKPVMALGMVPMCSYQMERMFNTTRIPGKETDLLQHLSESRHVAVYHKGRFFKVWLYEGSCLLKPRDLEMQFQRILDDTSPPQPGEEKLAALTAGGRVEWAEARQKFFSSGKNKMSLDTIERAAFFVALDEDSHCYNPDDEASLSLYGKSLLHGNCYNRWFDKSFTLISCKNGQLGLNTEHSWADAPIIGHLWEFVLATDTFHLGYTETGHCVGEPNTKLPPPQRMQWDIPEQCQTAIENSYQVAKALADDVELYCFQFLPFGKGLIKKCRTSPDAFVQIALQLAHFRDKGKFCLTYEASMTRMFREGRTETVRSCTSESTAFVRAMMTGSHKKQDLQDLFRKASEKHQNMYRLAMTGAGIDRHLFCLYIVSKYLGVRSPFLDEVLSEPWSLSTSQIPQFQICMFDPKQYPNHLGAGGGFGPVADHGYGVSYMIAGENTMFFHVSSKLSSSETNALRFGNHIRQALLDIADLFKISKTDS

[3] = compound: CCCCCCCCCCCCCCC[C@@]1(O)C[N+](C)(C)C[C@@H](CC(=O)[O-])O1; experiment: as §2
[4] = compound: CCCCCCCCCCCCCCC[C@@]1(O)C[N+](C)(C)C[C@@H](CC(=O)[O-])O1; experiment: as §1

## CCCCCCCCCCCCCCC[C@@]1(O)C[N+](C)(C)C[C@@H](CC(=O)[O-])O1 [HEMIACYLCARNITINIUM]
[1]
  Ki: 4.2 µM
[2]
  Ki: 2.8 µM

B1: Carnitine O-palmitoyltransferase 1, muscle isoform (Rattus norvegicus), Q63704 (protein)
chain: T2 sequence (Q63704 whole entry)
[3]
  Km: 500 µM

B2: Carnitine O-palmitoyltransferase 1, liver isoform (Rattus norvegicus), P32198 (protein)
chain: T1 sequence (P32198 whole entry)
[4]
  Km: 350 µM

Source: ChEMBL document CHEMBL1127073, “(+)-Hemipalmitoylcarnitinium strongly inhibits carnitine palmitoyltransferase-I in intact mitochondria” (J Med Chem, 1993)
